In patent US10392630B2, “Plants having increased tolerance to herbicides” (BASF AGRO B.V., priority 2013, dated 2019):
Several values for one entry are separate records, joined by “and”; a condition that tells them apart may be missing. Equal values may be shown once.

Key:
[1] = tested on: Alopecurus wildtype PPO (ALOMY), PPO herbicide sensitive PPO2, SEQ ID NO 2; experiment: PPO enzyme assay, dose-response (fluorescence), wildtype Alopecurus PPO2; assay type: biochemical, Alopecurus myosuroides
[2] = tested on: transgenic T0 corn events; experiment: Herbicide injury of transgenic T0 corn events, greenhouse spray (Table 6a); assay type: in vivo, Zea mays; settings: 7 days after treatment
[3] = molecular target: Amaranthus wildtype PPO (AMARE), PPO herbicide sensitive PPO2 (Amaranthus tuberculatus, UniProt Q0NZW9); experiment: PPO enzyme assay, dose-response (fluorescence), wildtype Amaranthus PPO2; assay type: biochemical; settings: IC50 (M), Table 3a
[4] = tested on: transgenic Arabidopsis thaliana plants; experiment: Growth inhibition of transgenic Arabidopsis in 48-well plates, tolerance factor (Table 5, FIG. 2); assay type: in vivo; settings: growth inhibition seven to ten days after seeding
[5] = tested on: transgenic soybean cv Jake cuttings; experiment: Herbicide injury of transgenic soybean cuttings from T0 plants (Table 7, FIG. 4); assay type: in vivo, Glyceine max; settings: V2 spray, 1 week after treatment

Sequence of Amaranthus wildtype PPO (AMARE), PPO herbicide sensitive PPO2 (Q0NZW9 entry or part of it): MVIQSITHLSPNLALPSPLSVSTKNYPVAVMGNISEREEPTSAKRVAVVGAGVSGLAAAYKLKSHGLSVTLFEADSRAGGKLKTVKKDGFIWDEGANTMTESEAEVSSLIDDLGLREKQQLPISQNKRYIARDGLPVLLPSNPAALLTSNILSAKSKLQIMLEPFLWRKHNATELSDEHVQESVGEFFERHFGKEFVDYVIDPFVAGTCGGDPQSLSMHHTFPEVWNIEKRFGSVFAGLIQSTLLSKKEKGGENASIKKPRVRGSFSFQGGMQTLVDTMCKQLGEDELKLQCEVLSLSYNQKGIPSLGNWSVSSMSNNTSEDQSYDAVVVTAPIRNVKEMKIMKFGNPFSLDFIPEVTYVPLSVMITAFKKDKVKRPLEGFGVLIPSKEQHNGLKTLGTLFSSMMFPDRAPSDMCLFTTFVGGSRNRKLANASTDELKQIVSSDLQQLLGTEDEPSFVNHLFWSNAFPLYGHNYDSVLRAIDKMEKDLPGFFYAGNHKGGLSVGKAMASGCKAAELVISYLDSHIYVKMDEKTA

SMILES: C#CCN1C(=O)C(F)(F)Oc2cc(F)c(-n3c(=O)n(C)c(=S)n(C)c3=O)cc21 [BAS 850H]
- IC50 ([1]; Table 3a, PPO herbicide sensitive PPO2, SEQ ID NO 2, ALOMY): 0.0364 nM
- IC50 ([1]; Table 3b, SEQ ID NO 2, WT): 0.0364 nM
- Herbicide injury, 0 to 9 rating scale ([2]; T0 corn events AlomyPPO1_R138A, 50 g ai/ha + 1% (v/v) MSO at V2 stage): 6
- Herbicide injury, 0 to 9 rating scale ([2]; T0 corn events AlomyPPO1_R138A_Y420M, 50 g ai/ha + 1% (v/v) MSO at V2 stage): 5 and 6
- Herbicide injury, 0 to 9 rating scale ([2]; T0 corn events AlomyPPO1_R138A_Y420V, 50 g ai/ha + 1% (v/v) MSO at V2 stage): 6 and 5
- Herbicide injury, 0 to 9 rating scale ([2]; T0 corn events AlomyPPO1_R138A_Y420V, 100 g ai/ha + 1% (v/v) MSO at V2 stage): 5
- Herbicide injury, 0 to 9 rating scale ([2]; T0 corn events AlomyPPO1_Y420M, 50 g ai/ha + 1% (v/v) MSO at V2 stage): 5 and 6
- Herbicide injury, 0 to 9 rating scale ([2]; T0 corn events AlomyPPO1_Y420M, 100 g ai/ha + 1% (v/v) MSO at V2 stage): 6
- Herbicide injury, 0 to 9 rating scale ([2]; T0 corn events AlomyPPO1_Y420V, 50 g ai/ha + 1% (v/v) MSO at V2 stage): 5 and 4 and 6
- Herbicide injury, 0 to 9 rating scale ([2]; T0 corn events AlomyPPO1_Y420V, 100 g ai/ha + 1% (v/v) MSO at V2 stage): 6
- Herbicide injury, 0 to 9 rating scale ([2]; T0 corn events AlomyPPO2, 50 g ai/ha + 1% (v/v) MSO at V2 stage): 6
- Herbicide injury, 0 to 9 rating scale ([2]; T0 corn events AlomyPPO2, 75 g ai/ha + 1% (v/v) MSO at V2 stage): 6
- Herbicide injury, 0 to 9 rating scale ([2]; T0 corn events AlomyPPO2_R137A, 50 g ai/ha + 1% (v/v) MSO at V2 stage): 5 and 4 and 6
- Herbicide injury, 0 to 9 rating scale ([2]; T0 corn events AlomyPPO2_R137A, 75 g ai/ha + 1% (v/v) MSO at V2 stage): 5
- Herbicide injury, 0 to 9 rating scale ([2]; T0 corn events AlomyPPO2_R137A_F438I, 50 g ai/ha + 1% (v/v) MSO at V2 stage): 4
- Herbicide injury, 0 to 9 rating scale ([2]; T0 corn events AlomyPPO2_R137A_F438I, 100 g ai/ha + 1% (v/v) MSO at V2 stage): 4 and 5
- Herbicide injury, 0 to 9 rating scale ([2]; T0 corn events AlomyPPO2_R137A_F438M, 100 g ai/ha + 1% (v/v) MSO at V2 stage): 5
- Herbicide injury, 0 to 9 rating scale ([2]; T0 corn events AlomyPPO2_R137A_F438V, 100 g ai/ha + 1% (v/v) MSO at V2 stage): 6
- Herbicide injury, 0 to 9 rating scale ([2]; T0 corn events AlomyPPO2_R137I, 100 g ai/ha + 1% (v/v) MSO at V2 stage): 4
- Herbicide injury, 0 to 9 rating scale ([2]; T0 corn events AlomyPPO2_R137M_F438I, 75 g ai/ha + 1% (v/v) MSO at V2 stage): 3 and 4
- Herbicide injury, 0 to 9 rating scale ([2]; T0 corn events tp-SorbiPPO2::AlomyPPO2, 50 g ai/ha + 1% (v/v) MSO at V2 stage): 5 and 6
- Herbicide injury, 0 to 9 rating scale ([2]; T0 corn events tp-SorbiPPO2::AlomyPPO2, 100 g ai/ha + 1% (v/v) MSO at V2 stage): 5
- Herbicide injury, 0 to 9 rating scale ([2]; T0 corn events tp-SorbiPPO2::AlomyPPO2_F431V, 50 g ai/ha + 1% (v/v) MSO at V2 stage): 4 and 5
- Herbicide injury, 0 to 9 rating scale ([2]; T0 corn events tp-SorbiPPO2::AlomyPPO2_F431V, 100 g ai/ha + 1% (v/v) MSO at V2 stage): 5 and 6
- Herbicide injury, 0 to 9 rating scale ([2]; T0 corn events tp-SorbiPPO2::AlomyPPO2_R130A, 50 g ai/ha + 1% (v/v) MSO at V2 stage): 4 and 5
- Herbicide injury, 0 to 9 rating scale ([2]; T0 corn events tp-SorbiPPO2::AlomyPPO2_R130A_F431V, 100 g ai/ha + 1% (v/v) MSO at V2 stage): 7 and 6
- Herbicide injury, 0 to 9 rating scale ([2]; T0 corn events tp-SorbiPPO2::c-AlomyPPO2_R130A_F431M, 50 g ai/ha + 1% (v/v) MSO at V2 stage): 4 and 5
- Herbicide injury, 0 to 9 rating scale ([2]; T0 corn events tp-SorbiPPO2::c-AlomyPPO2_R130L_F431V, 50 g ai/ha + 1% (v/v) MSO at V2 stage): 4 and 3 and 5
- Herbicide injury, 0 to 9 rating scale ([2]; T0 corn events tp-ZeamaPPO2::AlomyPPO2, 50 g ai/ha + 1% (v/v) MSO at V2 stage): 5 and 6
- Herbicide injury, 0 to 9 rating scale ([2]; T0 corn events tp-ZeamaPPO2::AlomyPPO2_F431V, 50 g ai/ha + 1% (v/v) MSO at V2 stage): 3 and 4 and 5
- Herbicide injury, 0 to 9 rating scale ([2]; T0 corn events tp-ZeamaPPO2::AlomyPPO2_F431V, 100 g ai/ha + 1% (v/v) MSO at V2 stage): 4
- Herbicide injury, 0 to 9 rating scale ([2]; T0 corn events tp-ZeamaPPO2::AlomyPPO2_R130A, 50 g ai/ha + 1% (v/v) MSO at V2 stage): 7 and 4 and 5 and 6
- Herbicide injury, 0 to 9 rating scale ([2]; T0 corn events tp-ZeamaPPO2::AlomyPPO2_R130A, 100 g ai/ha + 1% (v/v) MSO at V2 stage): 5
- Herbicide injury, 0 to 9 rating scale ([2]; T0 corn events tp-ZeamaPPO2::AlomyPPO2_R130A_F431V, 50 g ai/ha + 1% (v/v) MSO at V2 stage): 4 and 5
- Herbicide injury, 0 to 9 rating scale ([2]; T0 corn events tp-ZeamaPPO2::c-AlomyPPO2_R130L_F431V, 50 g ai/ha + 1% (v/v) MSO at V2 stage): 3 and 4 and 5 and 6
- Herbicide injury, 0 to 9 rating scale ([2]; T0 corn events tp-ZeamaPPO2::c-AlomyPPO2_R130M_F431V, 50 g ai/ha + 1% (v/v) MSO at V2 stage): 3 and 4 and 2
- Herbicide injury, 0 to 9 rating scale ([2]; untransformed wild type corn, 50 g ai/ha + 1% (v/v) MSO at V2 stage): 6
- Herbicide injury, 0 to 9 rating scale ([2]; untransformed wild type corn, 75 g ai/ha + 1% (v/v) MSO at V2 stage): 6
- Herbicide injury, 0 to 9 rating scale ([2]; untransformed wild type corn, 100 g ai/ha + 1% (v/v) MSO at V2 stage): 6
- IC50 ([3]; PPO herbicide sensitive PPO2 AC): 5.96e-11 M
- IC50 ([3]; PPO herbicide sensitive PPO2 WC): 5.17e-10 M
- TF (Tolerance Factor), relative tolerance rate (non-transgenic = 1.0) ([4]; transgenic Arabidopsis Am_PPO2_F438I): >50
- TF (Tolerance Factor), relative tolerance rate (non-transgenic = 1.0) ([4]; transgenic Arabidopsis Am_PPO2_R137A): >50
- TF (Tolerance Factor), relative tolerance rate (non-transgenic = 1.0) ([4]; transgenic Arabidopsis Am_PPO2_R137A_F438I): >50
- TF (Tolerance Factor), relative tolerance rate (non-transgenic = 1.0) ([4]; transgenic Arabidopsis Am_PPO2_R137A_F438L): >50
- TF (Tolerance Factor), relative tolerance rate (non-transgenic = 1.0) ([4]; transgenic Arabidopsis Am_PPO2_R137A_F438M): >50
- TF (Tolerance Factor), relative tolerance rate (non-transgenic = 1.0) ([4]; transgenic Arabidopsis Am_PPO2_R137A_F438V): >50
- TF (Tolerance Factor), relative tolerance rate (non-transgenic = 1.0) ([4]; transgenic Arabidopsis Am_PPO2_R137I): >50
- TF (Tolerance Factor), relative tolerance rate (non-transgenic = 1.0) ([4]; transgenic Arabidopsis Am_PPO2_R137L_F438I): >50
- TF (Tolerance Factor), relative tolerance rate (non-transgenic = 1.0) ([4]; transgenic Arabidopsis Am_PPO2_R137L_F438L): >50
- TF (Tolerance Factor), relative tolerance rate (non-transgenic = 1.0) ([4]; transgenic Arabidopsis Am_PPO2_R137L_F438M): >50
- TF (Tolerance Factor), relative tolerance rate (non-transgenic = 1.0) ([4]; transgenic Arabidopsis Am_PPO2_R137M_F438I): >50
- TF (Tolerance Factor), relative tolerance rate (non-transgenic = 1.0) ([4]; transgenic Arabidopsis Am_PPO2_R137M_F438L): >50
- TF (Tolerance Factor), relative tolerance rate (non-transgenic = 1.0) ([4]; transgenic Arabidopsis Am_PPO2_R137M_F438M): >50
- TF (Tolerance Factor), relative tolerance rate (non-transgenic = 1.0) ([4]; transgenic Arabidopsis Am_PPO2_R137M_F438V): >50
- Herbicide injury ([5]; AlomyPPO1_R138A T0 cuttings, BAS 850H 25 g ai/ha): 5 and 9
- Herbicide injury ([5]; AlomyPPO1_R138A T0 cuttings, BAS 850H 50 g ai/ha): 8 and 9
- Herbicide injury ([5]; AlomyPPO1_R138A_Y420M T0 cuttings, BAS 850H 25 g ai/ha): 7
- Herbicide injury ([5]; AlomyPPO1_R138A_Y420M T0 cuttings, BAS 850H 50 g ai/ha): 9
- Herbicide injury ([5]; AlomyPPO1_R138L T0 cuttings, BAS 850H 25 g ai/ha): 8 and 9 and 6
- Herbicide injury ([5]; AlomyPPO1_R138L T0 cuttings, BAS 850H 50 g ai/ha): 8 and 7 and 9
- Herbicide injury ([5]; AlomyPPO1_Y420M T0 cuttings, BAS 850H 25 g ai/ha): 6 and 5 and 9
- Herbicide injury ([5]; AlomyPPO1_Y420M T0 cuttings, BAS 850H 50 g ai/ha): 8 and 6 and 9
- Herbicide injury ([5]; AlomyPPO1_Y420V T0 cuttings, BAS 850H 50 g ai/ha): 9 and 7 and 8 and 5
- Herbicide injury ([5]; AlomyPPO2 T0 cuttings, BAS 850H 25 g ai/ha): 7 and 8 and 9
- Herbicide injury ([5]; AlomyPPO2 T0 cuttings, BAS 850H 50 g ai/ha): 9 and 8 and 7
- Herbicide injury ([5]; AlomyPPO2_R137A T0 cuttings, BAS 850H 25 g ai/ha): 7
- Herbicide injury ([5]; AlomyPPO2_R137A T0 cuttings, BAS 850H 50 g ai/ha): 7
- Herbicide injury ([5]; AlomyPPO2_R137A_F438I T0 cuttings, BAS 850H 25 g ai/ha): 4 and 5 and 7 and 8 and 6
- Herbicide injury ([5]; AlomyPPO2_R137A_F438I T0 cuttings, BAS 850H 50 g ai/ha): 5 and 6 and 7 and 8
- Herbicide injury ([5]; AlomyPPO2_R137A_F438I T0 cuttings, BAS 850H 75 g ai/ha): 5 and 8 and 7 and 9 and 6
- Herbicide injury ([5]; AlomyPPO2_R137A_F438L T0 cuttings, BAS 850H 25 g ai/ha): 6 and 9 and 8
- Herbicide injury ([5]; AlomyPPO2_R137A_F438L T0 cuttings, BAS 850H 50 g ai/ha): 7 and 9 and 5
- Herbicide injury ([5]; AlomyPPO2_R137A_F438L T0 cuttings, BAS 850H 75 g ai/ha): 7 and 9 and 5
- Herbicide injury ([5]; AlomyPPO2_R137A_F438V T0 cuttings, BAS 850H 50 g ai/ha): 4 and 5 and 6
- Herbicide injury ([5]; AlomyPPO2_R137A_F438V T0 cuttings, BAS 850H 75 g ai/ha): 5 and 7 and 6
- Herbicide injury ([5]; AlomyPPO2_R137I T0 cuttings, BAS 850H 50 g ai/ha): 6 and 5 and 7 and 9
- Herbicide injury ([5]; AlomyPPO2_R137L_F438I T0 cuttings, BAS 850H 25 g ai/ha): 8 and 9
- Herbicide injury ([5]; AlomyPPO2_R137L_F438I T0 cuttings, BAS 850H 50 g ai/ha): 9 and 8
- Herbicide injury ([5]; AlomyPPO2_R137L_F438I T0 cuttings, BAS 850H 75 g ai/ha): 9 and 8
- Herbicide injury ([5]; AlomyPPO2_R137M_F438L T0 cuttings, BAS 850H 50 g ai/ha): 7 and 4 and 5
- Herbicide injury ([5]; AlomyPPO2_R137M_F438L T0 cuttings, BAS 850H 75 g ai/ha): 7 and 6 and 5
- Herbicide injury ([5]; Wild type cuttings, BAS 850H 25 g ai/ha): 8
- Herbicide injury ([5]; Wild type cuttings, BAS 850H 50 g ai/ha): 9
- Herbicide injury ([5]; Wild type cuttings, BAS 850H 75 g ai/ha): 9
